Here are results for one compound from patent US20180055816A1, “PYRANONAPHTHOQUINONE COMPOUNDS AND METHODS OF USE THEREOF” (University of Kentucky Research Foundation, priority 2016, published 2018).

In one data set the test system is HCT116 cells. The data set is described as follows: Cell growth / cytotoxicity in HCT116 cells. Format: cell-based, human. To be noted: HCT116; 0.5 μM FB or UCF76-A versus 100 nM rapamycin, 0.5 μM AZD8055. As for the experimental part: Compounds that pass this single dose filter are then tested in a CRC (HCT116) in vitro cytotoxicity assay and, in parallel, an in vitro assay to assess propensity for intracellular reactive oxygen species (ROS) production using the redox sensitive probe CeIIROX® Deep Red reagent (Invitrogen) by flow cytometry analysis (47).
(§1) Cell growth was assessed as described previously. Briefly, 5×10^4 cells were seeded in 6-well plates in triplicates. After 24 h, cells were treated with the indicated compounds and incubated at 37° C. The cells were cultured for 3 days and the number of viable cells was counted using the Vi-CELL XR 2.03 (Beckman Coulter, Brea, Calif.). For apoptosis, cells were analyzed by flow cytometry using the Annexin V-FITC Apoptosis Detection Kit according to the manufacturer's protocol (BD Biosciences, San Jose, Calif.).

Data set [1] deals with T1, Prx1 (Homo sapiens, UniProt Q06830).
T1 sequence (Q06830 1-199): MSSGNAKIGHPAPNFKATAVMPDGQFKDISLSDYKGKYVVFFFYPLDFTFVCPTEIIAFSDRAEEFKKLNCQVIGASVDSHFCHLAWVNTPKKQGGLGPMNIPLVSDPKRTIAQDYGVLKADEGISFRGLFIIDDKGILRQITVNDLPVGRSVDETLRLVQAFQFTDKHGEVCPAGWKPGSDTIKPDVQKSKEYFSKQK
The data set can be described thus: Prx1 catalytic activity inhibition. Format: biochemical. To be noted: recombinant Prx1, 1 hour incubation. As for the experimental part: The recombinant Prx1 protein was incubated with the indicated concentration of FB, 12, or conoidin A for 1 hour. Data are presented as mean±s.e.m. (n=3 technical replicates per condition). […]. Statistical significance was determined by the Student's t-test.
Prx1 and Grx3 are antioxidant enzymes known to regulate oxidative stress. Prx1 catalyzes peroxide reduction of H2O2, whereas Grx3 functions as glutathione (GSH)-dependent oxidoreductase by participating in the conversion of reduced GSH to oxidized glutathione disulfide (GSSG). […] While Grx3 biochemical assays are lacking, FB and active analogs could lead to a decrease in GSH levels and an increase in GSSG levels in HCT116 cells (FIGS. 23A-B). As antioxidant enzymes utilize cysteine-containing active sites to reduce various cellular peroxide or disulfide substrates, the role of Prx1/Grx3 cysteines in FB ligand-binding was assessed through replacing their cysteines to alanines. […] Finally, mass spectrometry analysis confirmed the covalent modification of Prx1 and Grx3 by FB at these specific target sites. These cumulative studies provide strong validation of Prx1 and Grx3 as the predominate molecular targets of PNQs in cancer cells.

For data set [2], the system named is colorectal cancer (CRC) cell lines. The data set is described as follows: Cytotoxicity against a panel of colorectal cancer cell lines. Format: cell-based, human. To be noted: 72 h.
Source text: Human colon (HCT116, DLD-1, T84, HCT15, RKO, SW620) and breast (MDA-MB-231) cancer cell lines were obtained from the American Type Culture Collection (ATCC, Manassas, Va.) and cultured in the appropriate medium with supplements as recommended by ATCC. […] In addition, all the cell lines are routinely checked for morphologic and growth changes, to probe for cross-contaminated, or genetically drifted cells. If any of these features occur, we use the short tandem repeat (STR) profiling service by ATCC to re-authenticate the cell lines. HCT116 cells with stable knockdown of 4E-BP1 and its control stable transfectants were generated as described previously {Ye, 2014 #1007}. For transient transfection, cells were transiently transfected with DNA using Lipofectamine 3000 according to the manufacturer's protocol (Life Technologies, Carlsbad, Calif.).
as §1

Another data set relates to caspase 3. The data set can be described thus: Caspase 3 activation / cleaved PARP in HCT116 cells (Western blot). Conditions: HCT116, 2 μM, 12 h. Type of data set: cell-based, human. The method, then: HCT116 cells were treated with 1 μM MK2206 and 100 nM PD0325901 alone and in combination, 100 nM rapamycin, 0.5 μM AZD8055, 2 μM UCF76-A or 2 μM FB for 12 h followed by Western blot analysis for the indicated proteins.
Cells were lysed in NP-40 lysis buffer (50 mM Tris-HCl, pH 7.5, 150 mM NaCl, 1 mM EDTA, 1% NP-40, 10% glycerol, protease and phosphatase inhibitor cocktail). Western blot analysis were performed using equivalent total protein loadings as described previously. For immunoprecipitation, the cell lysates were incubated with the indicated antibody overnight followed by incubation with a 50% slurry of protein G sepharose beads for 3 h at 4° C. The beads were washed three times with the lysis buffer, and the immunoprecipitated protein complexes were resuspended in 2× Laemmli sample buffer followed by western blot analysis.
In general terms: Immunoblotting shows a protein as a band on a membrane.

Data set [3] addresses T1, Prx1. The data set can be described thus: Affinity pull-down / binding to Prx1. To be noted: streptavidin pull-down, competition, Western blot. Set-up: endogenous in cells; host or cells: HeLa cell lysates; HCT116 cell lysates. As for the experimental part:
The precipitates were resolved by SDS-PAGE, and the gel was stained with Coomassie blue. (C) Sequences illustrating amino acids and peptides of Prx1 and Grx3 identified by mass spectrometry analysis. The unique bands as shown by d7-pull down in the experiment for FIG. 20B were excised and subjected to in-gel tryptic digestion and analysis by MS, wherein the identified amino acids and peptides are shown in red characters. (D) Western blot illustrating that HCT116 cell lysates were incubated with different concentrations of d5 or d7 in the absence or presence of a ten-fold excess of FB for 3 h, followed by pull-down with streptavidin-agarose and Western blot analysis for the indicated proteins.
FIGS. 21A-D show images illustrating that the active probe d7 binds to and co-localizes with Prx1 and Grx3. (A) and (B) The recombinant Prx1 (A) or Grx3 (B) was incubated with d7 for 2 hours, followed by streptavidin pull down and Western blot analysis for the indicated proteins. (C) and (D) HCT116 cells were incubated with 25 μM d5, 25 μM d7 or DMSO as control for 5 hours, followed by confocal sections of the cells staining for Prx1 (C) or Grx3 (D) (red), biotin (green) and DAPI (blue). Scale bars, 10 μm.
HeLa cell pellets were purchased from National Cell Culture Center (Minneapolis, Minn.) and lysed in 20 ml of the NP-40 lysis buffer. […]

For the compound `CCCC1OC2CC(=O)OC2C2=C1C(=O)c1c(O)cccc1C2=O` (stereo not drawn) [FB, frenolicin B], in the data set with HCT116 cells, the “inhibition of CRC cell growth compared with mTOR inhibitors” value was “more potent than mTOR inhibitors”. Also, on Prx1 [1], the “inhibition of Prx1 catalytic activity” value is on record as “potently inhibit”. Further, the “cytotoxicity against CRC cell lines” value was “potent cytotoxicity” in data set [2] and “potent cytotoxic activity” in data set [2] (listed as frenolicin B). The “activation of caspase 3 with induction of cleaved PARP” value in the data set on caspase 3 was “potent activators”. Moreover, the “binding to Prx1” value on Prx1 [3] is “directly targets”.
